Organism: Rattus norvegicus
Experiment: Open TG-GATES - Regimen: Single
Format: toxicity, organism-based, Sprague-Dawley
Set-up: regimen Single, gender Male, age 6 weeks
Details: in vivo, po, 75 mg/kg, route gavage, dose level Low; for APTT / Bas / Eos / Fbg / Hb / Ht / Lym / MCH / MCHC / MCV / Mono / Neu / PT / Plat / RBC / Ret / WBC: tissue Blood; for KIDNEY_L / KIDNEY_R / KIDNEY_TOTAL: tissue Kidney; for LIVER: tissue Liver; for A/G / ALP / ALT / AST / BUN / CRE / Ca / Cl / DBIL / GLC / IP / K / LDH / Na / PL / RALB / TBIL / TC / TG / TP / gamma-GTP: tissue Plasma

For CN(C/C=C/C#CC(C)(C)C)Cc1cccc2ccccc12 [TERBINAFINE], the TERMINAL_BW (3 h) was 225.9 g, the APTT (3 h) was 19.4 s and the Bas (3 h) was 0.8%. It also gave an Eos (3 h) of 1%, a Fbg (3 h) of 219 mg/dL and a Hb (3 h) of 13.2 g/dL. It also gave a Ht (3 h) of 39.1%, a Lym (3 h) of 82.2% and an MCH (3 h) of 21.2 pg. For the same compound, the MCHC (3 h) was 33.8%, the MCV (3 h) was 62.7 fL and the Mono (3 h) was 2.2%. For the same compound, the Neu (3 h) was 14%, the PT (3 h) was 12 s and the Plat (3 h) was 116.2 x10_4/uL. The RBC (3 h) was 625.2 x10_4/ul, the Ret (3 h) was 7.3% and the WBC (3 h) was 88.5 x10_2/uL. It also gave a KIDNEY_L (3 h) of 1 g, a KIDNEY_R (3 h) of 1 g and a KIDNEY_TOTAL (3 h) of 2 g. It also gave an LIVER (3 h) of 10.4 g, an A/G (3 h) of 1.6 and an ALP (3 h) of 998 IU/L. It also gave an ALT (3 h) of 38.6 IU/L, an AST (3 h) of 69 IU/L and a BUN (3 h) of 11.8 mg/dL. For the same compound, the CRE (3 h) was 0.4 mg/dL, the Ca (3 h) was 10.7 mg/dL and the Cl (3 h) was 102.6 meq/L. The DBIL (3 h) was 0.088 mg/dL, the GLC (3 h) was 202.8 mg/dL and the IP (3 h) was 9.5 mg/dL. It also gave a K (3 h) of 3.8 meq/L, an LDH (3 h) of 161.4 IU/L and a Na (3 h) of 141.4 meq/L. It also gave a PL (3 h) of 143.6 mg/dL, an RALB (3 h) of 3.4 g/dL and a TBIL (3 h) of 0.1 mg/dL. It also gave a TC (3 h) of 79.4 mg/dL, a TG (3 h) of 51.2 mg/dL and a TP (3 h) of 5.5 g/dL. It also gave a gamma-GTP (3 h) of 0.8 IU/L, a TERMINAL_BW (6 h) of 221.9 g and an APTT (6 h) of 19.3 s. For the same compound, the Bas (6 h) was 0.8%, the Eos (6 h) was 1% and the Fbg (6 h) was 224.2 mg/dL. It also gave a Hb (6 h) of 13.5 g/dL, a Ht (6 h) of 40% and a Lym (6 h) of 78.8%. It also gave an MCH (6 h) of 21.3 pg, an MCHC (6 h) of 33.7% and an MCV (6 h) of 63.1 fL. For the same compound, the Mono (6 h) was 2.4%, the Neu (6 h) was 17.2% and the PT (6 h) was 12.1 s. It also gave a Plat (6 h) of 113 x10_4/uL, an RBC (6 h) of 634 x10_4/ul and a Ret (6 h) of 6.9%. For the same compound, the WBC (6 h) was 114.1 x10_2/uL, the KIDNEY_L (6 h) was 1 g and the KIDNEY_R (6 h) was 1 g. It also gave a KIDNEY_TOTAL (6 h) of 2 g, an LIVER (6 h) of 10.2 g and an A/G (6 h) of 1.6. For the same compound, the ALP (6 h) was 872.2 IU/L, the ALT (6 h) was 34.6 IU/L and the AST (6 h) was 66 IU/L. It also gave a BUN (6 h) of 10.6 mg/dL, a CRE (6 h) of 0.4 mg/dL and a Ca (6 h) of 10.9 mg/dL. It also gave a Cl (6 h) of 102.2 meq/L, a DBIL (6 h) of 0.086 mg/dL and a GLC (6 h) of 200 mg/dL. The IP (6 h) was 9.3 mg/dL, the K (6 h) was 4 meq/L and the LDH (6 h) was 147 IU/L. The Na (6 h) was 140.8 meq/L, the PL (6 h) was 143.2 mg/dL and the RALB (6 h) was 3.4 g/dL. It also gave a TBIL (6 h) of 0.1 mg/dL, a TC (6 h) of 77.6 mg/dL and a TG (6 h) of 76.6 mg/dL. For the same compound, the TP (6 h) was 5.5 g/dL, the gamma-GTP (6 h) was 1 IU/L and the TERMINAL_BW (9 h) was 219.9 g. It also gave an APTT (9 h) of 18.1 s, a Bas (9 h) of 0.8% and an Eos (9 h) of 1.2%. The Fbg (9 h) was 215.6 mg/dL, the Hb (9 h) was 13.2 g/dL and the Ht (9 h) was 39.5%. For the same compound, the Lym (9 h) was 77.6%, the MCH (9 h) was 21.6 pg and the MCHC (9 h) was 33.6%. For the same compound, the MCV (9 h) was 64.3 fL, the Mono (9 h) was 2% and the Neu (9 h) was 18.4%. It also gave a PT (9 h) of 12.6 s, a Plat (9 h) of 113.5 x10_4/uL and an RBC (9 h) of 614.2 x10_4/ul. The Ret (9 h) was 6.6%, the WBC (9 h) was 90.4 x10_2/uL and the KIDNEY_L (9 h) was 1 g. It also gave a KIDNEY_R (9 h) of 1 g, a KIDNEY_TOTAL (9 h) of 2 g and an LIVER (9 h) of 8.9 g. For the same compound, the A/G (9 h) was 1.6, the ALP (9 h) was 930.2 IU/L and the ALT (9 h) was 33.2 IU/L. The AST (9 h) was 71.4 IU/L, the BUN (9 h) was 10.6 mg/dL and the CRE (9 h) was 0.3 mg/dL. The Ca (9 h) was 10.3 mg/dL, the Cl (9 h) was 103.8 meq/L and the DBIL (9 h) was 0.062 mg/dL. It also gave a GLC (9 h) of 202.6 mg/dL, an IP (9 h) of 9.9 mg/dL and a K (9 h) of 3.8 meq/L. For the same compound, the LDH (9 h) was 195.4 IU/L, the Na (9 h) was 141.4 meq/L and the PL (9 h) was 124 mg/dL. It also gave an RALB (9 h) of 3.3 g/dL, a TBIL (9 h) of 0.1 mg/dL and a TC (9 h) of 68.8 mg/dL. For the same compound, the TG (9 h) was 29.8 mg/dL, the TP (9 h) was 5.4 g/dL and the gamma-GTP (9 h) was 1.6 IU/L. The TERMINAL_BW (24 h) was 238.9 g, the APTT (24 h) was 19.4 s and the Bas (24 h) was 0.8%. For the same compound, the Eos (24 h) was 1%, the Fbg (24 h) was 227.2 mg/dL and the Hb (24 h) was 13.3 g/dL. The Ht (24 h) was 39.7%, the Lym (24 h) was 77.2% and the MCH (24 h) was 21.1 pg. For the same compound, the MCHC (24 h) was 33.6%, the MCV (24 h) was 62.9 fL and the Mono (24 h) was 3%. For the same compound, the Neu (24 h) was 17.8%, the PT (24 h) was 12 s and the Plat (24 h) was 124.5 x10_4/uL. It also gave an RBC (24 h) of 631.4 x10_4/ul, a Ret (24 h) of 6.6% and a WBC (24 h) of 82.1 x10_2/uL. For the same compound, the KIDNEY_L (24 h) was 1.1 g, the KIDNEY_R (24 h) was 1 g and the KIDNEY_TOTAL (24 h) was 2.1 g. It also gave an LIVER (24 h) of 11.8 g, an A/G (24 h) of 1.5 and an ALP (24 h) of 1096 IU/L. The ALT (24 h) was 42.8 IU/L, the AST (24 h) was 84.8 IU/L and the BUN (24 h) was 15.2 mg/dL. For the same compound, the CRE (24 h) was 0.4 mg/dL, the Ca (24 h) was 10.8 mg/dL and the Cl (24 h) was 104.2 meq/L. It also gave a DBIL (24 h) of 0.1 mg/dL, a GLC (24 h) of 194.2 mg/dL and an IP (24 h) of 7.7 mg/dL. For the same compound, the K (24 h) was 4.3 meq/L, the LDH (24 h) was 207.8 IU/L and the Na (24 h) was 141 meq/L. The PL (24 h) was 135.6 mg/dL, the RALB (24 h) was 3.4 g/dL and the TBIL (24 h) was 0.2 mg/dL. For the same compound, the TC (24 h) was 68.6 mg/dL, the TG (24 h) was 109.2 mg/dL and the TP (24 h) was 5.6 g/dL. For the same compound, the gamma-GTP (24 h) was 1.6 IU/L.

From ChEMBL document CHEMBL3885861, “Open TG-GATES”
